The source of these data is ChEMBL document CHEMBL5356945, “Discovery of PFI-6, a small-molecule chemical probe for the YEATS domain of MLLT1 and MLLT3” (Bioorg Med Chem Lett, 2024).

In brackets after ≈: the same amount, converted by molar mass.

The target in data set [1] is T1, Protein ENL (Homo sapiens, UniProt Q03111).
T1 sequence (Q03111 whole entry): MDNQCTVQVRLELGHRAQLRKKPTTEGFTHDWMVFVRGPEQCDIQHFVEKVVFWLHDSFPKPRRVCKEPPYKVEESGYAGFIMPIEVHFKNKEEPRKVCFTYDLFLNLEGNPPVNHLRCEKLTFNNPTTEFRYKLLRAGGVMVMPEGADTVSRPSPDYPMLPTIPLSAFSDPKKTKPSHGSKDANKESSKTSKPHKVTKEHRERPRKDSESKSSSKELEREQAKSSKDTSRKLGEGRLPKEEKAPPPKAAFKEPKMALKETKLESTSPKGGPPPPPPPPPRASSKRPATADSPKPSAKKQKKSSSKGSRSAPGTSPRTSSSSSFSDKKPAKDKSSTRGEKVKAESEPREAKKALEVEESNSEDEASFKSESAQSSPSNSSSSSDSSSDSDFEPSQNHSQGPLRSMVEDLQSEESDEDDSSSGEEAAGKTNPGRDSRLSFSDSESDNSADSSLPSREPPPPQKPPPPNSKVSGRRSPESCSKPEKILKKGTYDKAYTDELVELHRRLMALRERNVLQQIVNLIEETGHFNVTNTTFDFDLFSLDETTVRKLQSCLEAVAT
Briefly: Inhibition of His-tagged MLLT1 YD domain (unknown origin) assessed as disruption of protein binding to histone peptide using biotinylated histone peptide as substrate by AlphaScreen assay. (In general: In Alpha technology, singlet oxygen from a donor bead excites a nearby acceptor bead.)

Data set [2] deals with T1, Protein ENL. Briefly: Inhibition of MLLT1 YD domain (unknown origin) assessed as disruption of histone peptide binding using histone peptide as substrate by HTRF assay. In general terms: Time-resolved FRET reads energy transfer from a long-lived donor to a nearby acceptor.
Data set [3] concerns the target T2, Protein AF-9 (Homo sapiens, UniProt P42568).
T2 sequence (P42568 whole entry): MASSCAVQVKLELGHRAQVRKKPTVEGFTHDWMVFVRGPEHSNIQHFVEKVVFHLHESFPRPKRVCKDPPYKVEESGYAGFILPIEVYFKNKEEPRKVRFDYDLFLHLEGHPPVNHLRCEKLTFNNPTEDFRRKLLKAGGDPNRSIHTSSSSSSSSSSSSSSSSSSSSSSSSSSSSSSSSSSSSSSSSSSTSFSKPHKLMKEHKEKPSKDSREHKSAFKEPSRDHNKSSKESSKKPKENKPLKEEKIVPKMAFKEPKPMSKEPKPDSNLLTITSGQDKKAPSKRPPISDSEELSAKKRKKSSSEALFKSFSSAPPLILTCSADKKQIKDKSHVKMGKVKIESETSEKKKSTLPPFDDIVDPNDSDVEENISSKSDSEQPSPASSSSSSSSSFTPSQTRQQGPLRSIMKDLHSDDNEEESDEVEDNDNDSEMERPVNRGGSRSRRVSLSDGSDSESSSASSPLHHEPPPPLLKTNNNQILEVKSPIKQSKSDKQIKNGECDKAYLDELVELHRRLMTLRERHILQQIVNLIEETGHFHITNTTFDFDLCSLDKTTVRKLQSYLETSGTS
As to the kind of experiment: Inhibition of MLLT3 YD domain (unknown origin) assessed as disruption of histone peptide binding using histone peptide as substrate by HTRF assay.

The target of data set [4] is T3, YEATS domain-containing protein 2 (Homo sapiens, UniProt Q9ULM3).
T3 sequence (Q9ULM3 whole entry): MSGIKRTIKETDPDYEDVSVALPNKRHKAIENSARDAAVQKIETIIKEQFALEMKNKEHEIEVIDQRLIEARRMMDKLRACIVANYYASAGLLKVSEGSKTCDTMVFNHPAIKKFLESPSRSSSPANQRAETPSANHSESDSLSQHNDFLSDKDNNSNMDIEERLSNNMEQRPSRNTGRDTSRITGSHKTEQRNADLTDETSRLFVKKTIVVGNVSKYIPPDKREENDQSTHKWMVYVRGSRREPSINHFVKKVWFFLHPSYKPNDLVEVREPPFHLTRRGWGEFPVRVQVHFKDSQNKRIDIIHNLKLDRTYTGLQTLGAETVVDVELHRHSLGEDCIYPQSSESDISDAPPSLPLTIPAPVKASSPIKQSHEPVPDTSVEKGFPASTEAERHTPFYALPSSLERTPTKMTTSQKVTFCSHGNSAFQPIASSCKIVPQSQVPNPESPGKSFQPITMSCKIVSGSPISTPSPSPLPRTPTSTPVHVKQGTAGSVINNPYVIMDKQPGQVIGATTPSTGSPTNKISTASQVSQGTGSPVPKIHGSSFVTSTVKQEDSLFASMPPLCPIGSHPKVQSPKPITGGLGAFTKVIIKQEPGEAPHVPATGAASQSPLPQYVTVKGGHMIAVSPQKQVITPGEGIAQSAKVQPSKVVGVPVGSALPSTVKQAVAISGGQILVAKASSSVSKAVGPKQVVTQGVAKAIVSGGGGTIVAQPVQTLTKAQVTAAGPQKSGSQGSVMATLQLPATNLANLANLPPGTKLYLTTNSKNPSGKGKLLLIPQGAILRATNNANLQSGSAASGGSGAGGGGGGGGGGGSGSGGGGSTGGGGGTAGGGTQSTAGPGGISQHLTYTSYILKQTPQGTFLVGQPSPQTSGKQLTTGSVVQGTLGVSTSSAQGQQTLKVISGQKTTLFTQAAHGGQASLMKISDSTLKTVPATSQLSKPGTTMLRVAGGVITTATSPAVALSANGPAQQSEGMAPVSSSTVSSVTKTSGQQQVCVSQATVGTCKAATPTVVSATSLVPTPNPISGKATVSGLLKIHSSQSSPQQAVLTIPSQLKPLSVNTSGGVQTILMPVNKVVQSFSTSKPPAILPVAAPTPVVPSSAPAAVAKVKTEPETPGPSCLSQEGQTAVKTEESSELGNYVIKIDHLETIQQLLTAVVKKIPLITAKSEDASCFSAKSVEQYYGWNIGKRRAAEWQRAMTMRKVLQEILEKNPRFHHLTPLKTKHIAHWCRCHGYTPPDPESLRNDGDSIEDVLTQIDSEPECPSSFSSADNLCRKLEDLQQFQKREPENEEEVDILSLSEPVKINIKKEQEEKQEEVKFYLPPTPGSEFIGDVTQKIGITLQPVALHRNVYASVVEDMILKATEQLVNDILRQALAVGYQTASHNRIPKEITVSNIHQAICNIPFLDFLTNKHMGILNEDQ
Briefly: Inhibition of YEATS2 YD domain (unknown origin) assessed as disruption of histone peptide binding using histone peptide as substrate by HTRF assay.

The target in data set [5] is T4, YEATS domain-containing protein 4 (Homo sapiens, UniProt O95619). As to the kind of experiment: Inhibition of YEATS4 YD domain (unknown origin) assessed as disruption of histone peptide binding using histone peptide as substrate by HTRF assay.
T4 sequence (O95619 whole entry, the tested form may be a part): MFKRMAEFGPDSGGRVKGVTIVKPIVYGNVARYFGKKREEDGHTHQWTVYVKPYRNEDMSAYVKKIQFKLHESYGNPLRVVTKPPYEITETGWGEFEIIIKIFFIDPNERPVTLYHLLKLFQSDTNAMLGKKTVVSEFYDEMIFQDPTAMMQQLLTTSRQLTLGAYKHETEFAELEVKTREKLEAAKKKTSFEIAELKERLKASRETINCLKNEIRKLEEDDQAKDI
Data set [6] addresses T2, Protein AF-9. Briefly: Binding affinity to MLLT3 in human HEK293 cells by NanoBRET assay. The format is cell-based. Background: Bioluminescence resonance energy transfer reports proximity on the nanometre scale.
Data set [7] can be described thus: Lipophilicity, logD of the compound by shake flask method. The format is physicochemical. Particulars: octanol/water.
Data set [8] addresses T5, Protein ENL (Homo sapiens) (UniProt Q03111).
T5 sequence (whole entry): T1 sequence (Q03111 whole entry)
As to the kind of experiment: Binding affinity to MLLT1 YD domain (unknown origin) assessed as change in melting temperature by thermal shift assay.

In data set [9] the target is T6, YEATS domain-containing protein 2 (Homo sapiens) (UniProt Q9ULM3).
T6 sequence (whole entry): T3 sequence (Q9ULM3 whole entry)
Briefly: Binding affinity to YEATS2 YD domain (unknown origin) assessed as change in melting temperature by thermal shift assay.

Data set [10] deals with T4, YEATS domain-containing protein 4. Briefly: Binding affinity to YEATS4 YD domain (unknown origin) assessed as change in melting temperature by thermal shift assay.
Data set [11] can be described thus: Passive apparent permeability in dog MDCK cells. The format is ADME, cell-based, Canis lupus familiaris.
Data set [12] is described as follows: Kinetic solubility of compound at pH 7.4. The format is physicochemical. Particulars: buffer, read-out: Kinetic_solubility.
A short description of data set [13]: Metabolic stability in human hepatocytes assessed as apparent intrinsic clearance measured per million cells. The format is ADME, cell-based, Hepatocyte.
Data set [14] concerns the target Voltage-gated inwardly rectifying potassium channel KCNH2 (Homo sapiens, UniProt Q12809). As to the kind of experiment: Inhibition of human ERG assessed as inhibition constant by patch-clamp assay. The format is toxicity.
Data set [15] is described as follows: Cytotoxicity against human THLE cells assessed as decrease in cellular ATP by CellTiter-Glo assay. The format is toxicity, cell-based.
The target of data set [16] is T7, Protein AF-9 (Homo sapiens) (UniProt P42568).
T7 sequence (whole entry): T2 sequence (P42568 whole entry)
Description: Binding affinity to MLLT3 YD domain (unknown origin) assessed as change in melting temperature by thermal shift assay

Data set [17] deals with T5, Protein ENL (Homo sapiens). Briefly: Inhibition of His-tagged MLLT1 YD domain (unknown origin) assessed as disruption of protein binding to histone peptide using biotinylated histone peptide as substrate at 100 uM by AlphaScreen assay.

One may read the IC50 as the midpoint of a concentration-inhibition curve. The logD is lipophilicity at a set pH, counting ionised and neutral species. A low value points to lower lipophilicity. In general, ΔTm refers to the shift of the melting midpoint relative to a reference. A word on the Papp: it is a coefficient for how fast a substance crosses the barrier. By Ki is commonly meant a measure of affinity in units of concentration, obtained from inhibition or displacement. Broadly, the inhibition is how much of the control response was suppressed.

Sequence of Voltage-gated inwardly rectifying potassium channel KCNH2 (Q12809 whole entry): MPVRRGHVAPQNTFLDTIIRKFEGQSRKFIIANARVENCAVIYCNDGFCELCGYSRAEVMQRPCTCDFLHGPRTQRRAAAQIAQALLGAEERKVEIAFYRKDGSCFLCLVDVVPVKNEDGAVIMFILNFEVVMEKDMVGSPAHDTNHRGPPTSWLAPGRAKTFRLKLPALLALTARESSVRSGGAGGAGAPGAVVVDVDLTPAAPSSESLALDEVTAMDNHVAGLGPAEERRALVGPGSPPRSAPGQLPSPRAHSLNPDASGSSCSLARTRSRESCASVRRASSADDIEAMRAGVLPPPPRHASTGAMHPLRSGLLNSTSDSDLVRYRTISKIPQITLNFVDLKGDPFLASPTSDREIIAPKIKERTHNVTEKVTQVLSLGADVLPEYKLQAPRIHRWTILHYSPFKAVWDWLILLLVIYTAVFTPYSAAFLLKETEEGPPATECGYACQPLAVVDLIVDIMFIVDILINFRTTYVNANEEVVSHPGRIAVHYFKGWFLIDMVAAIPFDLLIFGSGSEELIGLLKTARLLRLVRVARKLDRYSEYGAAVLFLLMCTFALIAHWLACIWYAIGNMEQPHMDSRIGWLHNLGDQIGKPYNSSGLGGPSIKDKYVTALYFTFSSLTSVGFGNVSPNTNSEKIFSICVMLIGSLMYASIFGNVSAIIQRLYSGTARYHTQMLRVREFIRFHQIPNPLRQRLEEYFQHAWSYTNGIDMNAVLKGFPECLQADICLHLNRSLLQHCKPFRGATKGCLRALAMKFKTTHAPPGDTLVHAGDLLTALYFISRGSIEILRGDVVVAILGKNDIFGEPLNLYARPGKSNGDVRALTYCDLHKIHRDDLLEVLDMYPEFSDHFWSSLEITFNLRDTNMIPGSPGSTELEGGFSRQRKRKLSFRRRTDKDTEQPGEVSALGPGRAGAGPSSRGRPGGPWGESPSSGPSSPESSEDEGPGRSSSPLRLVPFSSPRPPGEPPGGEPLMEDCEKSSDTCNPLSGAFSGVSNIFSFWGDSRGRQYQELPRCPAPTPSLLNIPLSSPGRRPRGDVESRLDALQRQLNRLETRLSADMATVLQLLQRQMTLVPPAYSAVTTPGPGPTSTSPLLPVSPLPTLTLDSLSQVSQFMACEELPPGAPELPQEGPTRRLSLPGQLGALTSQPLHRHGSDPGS

Consider `O=C(NC1CCCC1)c1ccc2snnc2c1`, for which the concentration for half-maximal inhibition (IC50) on Protein ENL [1] came out at 3 µM.
For the compound `CN(C)C(=O)c1ccc(-c2cc(C(=O)N(C)C3CCCC3)no2)cc1O`, the IC50 is above 30000 nM at Protein ENL [2]; above 30000 nM at Protein AF-9 [3]; above 30 µM in data set [4]; above 30 µM in [5]; above 30000 nM at Protein AF-9 [6].
For the compound `O=C(NC1CCCC1)c1cc(-c2ccc(Cl)c(O)c2)on1`, the IC50 was 750 nM on Protein ENL [2], 500 nM on Protein AF-9 [3], above 30 µM in [4] and above 5.8 µM in data set [5].
For `CN(C)C(=O)c1ccc(-c2cc(C(=O)N[C@@H]3CCc4ccccc43)no2)cc1O`, in data set [7], the logD is 3.3. Further, the IC50 was above 30 µM in [4], above 30 µM in data set [5] and above 100 µM in data set [15]. In addition, the ΔTm in data set [8] was 3.61 °C; in [9], 0 °C; in data set [10] it was -0.02 °C; in [16] it was 5.13 °C. In data set [11], the apparent permeability coefficient (Papp) was determined as 27 ×10⁻⁶ cm/s. Besides, the solubility kinetic in [12] is 3000 µM (≈ 1170 µg/mL). Further, the “CLH(app)” value in data set [13] amounted to 43 µL/min. For the same compound, in data set [14], the Ki was above 100 µM.
For the compound `O=C(NC1CCCC1)c1cn(-c2cccc(O)c2)cn1`, the concentration for half-maximal inhibition (IC50) was 970 nM on Protein ENL [2], 500 nM at Protein AF-9 [3], above 26 µM in [4] and above 30 µM in data set [5].
With `CN(C(=O)c1cc(-c2cccc(O)c2)on1)C1CCCC1`, the concentration for half-maximal inhibition (IC50) on Protein ENL [1] was above 30 µM.
Regarding `CN(C)C(=O)c1ccc(-c2cc(C(=O)NC3CCCC3)no2)cc1O`, the IC50 at Protein ENL [2] was 160 nM; at Protein AF-9 [3] it was 120 nM; in data set [4], above 30 µM; in data set [5], above 30 µM.
Turning to `O=C(NC1CCC1)c1cc(-c2cccc(O)c2)on1`, the half-maximal inhibitory concentration (IC50) on Protein ENL [1] amounted to 1.14 µM.
Turning to `C/C=C/C(=O)NC1CCCC1`, the inhibition in data set [17] worked out at 55%.
On to `O=C(NCC1CC1)c1cc(-c2cccc(O)c2)on1`, for which the IC50 on Protein ENL [1] came to 21.9 µM.
On the same count and under the same terms, then `O=C(NC1CCCC1)c1cc2cc(F)ccc2[nH]1`, with 5.64 µM.
Regarding `O=C(NC1CCCC1)c1cc(-c2cc(O)c3cccnc3c2)on1`, the IC50 at Protein ENL [2] was 260 nM; at Protein AF-9 [3], 200 nM; in data set [4], above 30 µM; in data set [5] it was above 30 µM.
As to `O=C(NC1CCCC1)c1cc(-c2cccc(O)c2)on1`, the IC50 is 1.1 µM on Protein ENL [1]; 930 nM at Protein ENL [2]; 630 nM at Protein AF-9 [3]; above 30 µM in data set [4]; above 30 µM in [5].
Regarding `O=C(NC1CCCC1)c1cc(-c2cccc(O)c2Cl)on1`, the IC50 at Protein ENL [2] was above 30000 nM; on Protein AF-9 [3], above 30000 nM; in data set [4], above 30 µM; in [5], above 30 µM.
`C[C@H]1CCCN1Cc1nc2cc(NC(=O)c3ccc4c(cnn4C)c3)ccc2[nH]1` registered an IC50 on Protein AF-9 [6] of 600 nM.
As to `O=C(NC1CCCC1)c1cc(-c2ccc(O)cc2)on1`, on Protein ENL [1], the IC50 was found to be 6.9 µM.
Turning to `O=C(NC1CCCC1)c1cc(-c2cccc(O)c2)n[nH]1`, the IC50 on Protein ENL [2] is 2500 nM; at Protein AF-9 [3] it was 3400 nM; in data set [4] it was above 30 µM; in [5] it was above 30 µM.
In the case of `O=C(NC1CC1)c1cc(-c2cccc(O)c2)on1`, the IC50 at Protein ENL [1] stood at 28.9 µM.
Regarding `CC(C)NC(=O)c1cc(-c2cccc(O)c2)on1`, at Protein ENL [1], the concentration for half-maximal inhibition (IC50) was found to be 9.13 µM.
For `O=C(NC1CCCC1)c1cnn(-c2cccc(O)c2)c1`, the concentration for half-maximal inhibition (IC50) on Protein ENL [2] is 3400 nM; at Protein AF-9 [3] it was 2400 nM; in data set [4] it was above 30 µM; in [5] it was above 30 µM.
